Reference: PubChem BioAssay (NCI)
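Each compound was tested at five concentrations against cells in 96-well plates for 48 hours. TGI: total growth inhibition.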

What was measured:
Assay in all cases: growth of human tumour cells (NCI), 48 h
[1] = system: LOX IMVI melanoma
[2] = system: OVCAR-3 ovarian
[3] = system: CCRF-CEM leukemia
[4] = system: SW-620 colon
[5] = system: SF-539 CNS
[6] = system: UACC-62 melanoma
[7] = system: M14 melanoma
[8] = system: HCC-2998 colon
[9] = system: UACC-257 melanoma
[10] = system: KM12 colon
[11] = system: A498 renal
[12] = system: HOP-62 NSCLC
[13] = system: MDA-MB-435
[14] = system: MDA-N
[15] = system: HCT-15 colon
[16] = system: NCI/ADR-RES ovarian
[17] = system: HOP-92 NSCLC
[18] = system: MOLT-4 leukemia
[19] = system: T-47D breast
[20] = system: OVCAR-4 ovarian
[21] = system: UO-31 renal
[22] = system: NCI-H522 lung
[23] = system: SN12C renal
[24] = system: SK-MEL-28 melanoma
[25] = system: HT29 colon
[26] = system: 786-0 renal
[27] = system: HL-60(TB) leukemia
[28] = system: SF-268 CNS
[29] = system: MDA-MB-231 breast
[30] = system: NCI-H23 lung
[31] = system: MCF7 breast
[32] = system: SK-MEL-5 melanoma
[33] = system: U251 CNS
[34] = system: SK-MEL-2 melanoma
[35] = system: RPMI-8226 leukemia
[36] = system: A549 NSCLC
[37] = system: BT-549 breast
[38] = system: COLO 205 colon
[39] = system: MALME-3M melanoma
[40] = system: HCT-116 colon
[41] = system: NCI-H460 lung
[42] = system: SR leukemia
[43] = system: SNB-19 CNS
[44] = system: DU-145 prostate
[45] = system: OVCAR-8 ovarian
[46] = system: IGROV1 ovarian
[47] = system: SNB-75 CNS
[48] = system: PC-3 prostate
[49] = system: OVCAR-5 ovarian
[50] = system: TK-10 renal
[51] = system: CAKI-1 renal
[52] = system: HS 578T breast
[53] = system: EKVX NSCLC
[54] = system: SF-295 CNS
[55] = system: ACHN renal

Measured: TGI

N#Cc1ccc(OCc2ccc3nc(-c4ccccc4)c(Cl)nc3c2)cc1
> 100 µM: all assays above
